# Results taken from patent publication US20090305993A1, “METHODS AND COMPOSITION FOR THE TREATMENT OF GASTROINTESTINAL DISORDERS” (IRONWOOD PHARMACEUTICALS, INC., priority 2006, published 2009).
# Read-outs that look alike come from different tables or passages of the source. Where a SMILES comes first, the peptide text is derived from it. Bridges are numbered along the chain shown (N, C = ends).
# Assays:
# [1] = target: T1, GC-C receptors on the cell surface of human colonic cells (T84 cells) (Homo sapiens, UniProt P25092); assay: competitive radioligand-binding assay on T84 cells
# T1 construct: host or cells: T84 cells (whole cells in suspension)
# T1 sequence (P25092 24-1073): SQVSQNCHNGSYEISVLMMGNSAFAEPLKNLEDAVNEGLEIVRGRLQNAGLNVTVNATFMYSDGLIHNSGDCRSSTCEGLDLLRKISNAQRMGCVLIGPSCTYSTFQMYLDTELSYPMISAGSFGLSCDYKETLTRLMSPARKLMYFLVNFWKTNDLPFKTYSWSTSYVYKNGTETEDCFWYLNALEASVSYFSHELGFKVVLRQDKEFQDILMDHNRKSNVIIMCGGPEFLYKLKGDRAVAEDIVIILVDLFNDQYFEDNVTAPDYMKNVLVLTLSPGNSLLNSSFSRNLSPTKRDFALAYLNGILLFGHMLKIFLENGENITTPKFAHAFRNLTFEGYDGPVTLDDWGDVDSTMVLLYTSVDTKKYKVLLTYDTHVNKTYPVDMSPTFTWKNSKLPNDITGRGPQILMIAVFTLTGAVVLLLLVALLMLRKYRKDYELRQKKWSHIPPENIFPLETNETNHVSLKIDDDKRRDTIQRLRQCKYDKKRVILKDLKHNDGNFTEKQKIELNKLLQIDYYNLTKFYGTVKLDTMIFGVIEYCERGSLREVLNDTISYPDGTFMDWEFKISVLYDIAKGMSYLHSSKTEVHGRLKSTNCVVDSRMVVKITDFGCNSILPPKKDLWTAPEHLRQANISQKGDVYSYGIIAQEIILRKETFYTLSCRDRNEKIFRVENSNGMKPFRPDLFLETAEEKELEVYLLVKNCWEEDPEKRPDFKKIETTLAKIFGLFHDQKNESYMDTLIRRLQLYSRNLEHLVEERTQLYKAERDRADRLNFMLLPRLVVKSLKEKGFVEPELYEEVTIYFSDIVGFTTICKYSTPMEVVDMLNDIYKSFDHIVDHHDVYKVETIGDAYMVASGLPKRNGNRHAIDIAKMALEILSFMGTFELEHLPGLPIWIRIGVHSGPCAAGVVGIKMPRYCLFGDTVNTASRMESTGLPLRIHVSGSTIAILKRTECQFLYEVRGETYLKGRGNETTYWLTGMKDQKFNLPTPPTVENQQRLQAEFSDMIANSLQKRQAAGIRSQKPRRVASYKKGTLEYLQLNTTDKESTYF
# Method: The radiolabeled tracer used in these experiments was ^125I-SEQ ID NO:7. To determine binding constants, competitive inhibition of binding was used. T84 cells were cultured in T-150 plastic flasks in DMEM and Ham's F-12 medium containing 5% fetal bovine serum. Monolayers at 60-70% confluency (approximately 10^7 cells) were collected by gentle scraping followed by centrifugation, and washed twice in 50 mL of phosphate-buffered saline (PBS). The cells were resuspended in 1 mL DMEM containing 20 mM […] (Hepes), pH 7.0 and 0.5% bovine serum albumin (BSA). T84 cells were incubated with a constant amount of ^125I-SEQ ID NO:7 containing various concentrations of cold competitor. Free ^125I-SEQ ID NO:7 was separated from bound tracer by rapid suction filtration. The binding reactions were carried out in 1.5 mL microfuge tubes in 0.24 mL of DMEM/20 mM Hepes pH 7.0/0.5% BSA containing: 2.5×10^5 T84 cells (0.25 mg protein), 200,000 cpm ^125I-SEQ ID NO:7 (41 fmol, […]), and 0.01 to 1,000 nM competitor. Binding assays at pH 5.0 were done in DMEM/20 mM 2-(N-morpholino) ethanesulfonic acid (Mes), pH 5.0. Binding assays in pH 8.0 were done in DMEM/20 mM Hepes/50 mM sodium bicarbonate pH 8.0. One sample contained no competitor (B0) and another contained no cells. After incubation at 37° C. for 1 h, the reaction mixtures were applied to Whatman GF/B glass-fiber filters by suction filtration. The filters were then rinsed with 10 mL ice-cold PBS buffer, inserted into plastic tubes, and added to 2 mL scintillation fluid. Radioactivity was measured in a LS 6500 liquid scintillation counter (Beckman-Coulter). The percent bound in each sample is calculated by the equation:
# % B/B0=(sample cpm−no cells cpm)×100/(B0 cpm−no cells cpm)
# Competitive radioligand-binding curves were generated using the Graphpad PRISM™ computer program. […] The apparent dissociation equilibrium constant (Ki) for each competitor was obtained from the IC50 values and the previously reported estimate of the dissociation constant for the radioligand, Kd≈15 nM (Hamra et al. 1997 PNAS 2705-10) and the method of Cheng and Prusoff 1973 Biochem Pharmacol 22:3099-108. Using a two site model, high and low affinity-binding sites were identified on T84 cells (Ki1 and Ki2) for all the test agents. At pH 7.0. for SEQ ID NO:3 Ki1 ranged from 0.89-1.23 nM and Ki2 ranged from 88.9-156 nM.
# [2] = system: Female CD rats; assay: rat model of postoperative ileus; assay type: in vivo; conditions: oral 10 μg/kg, after abdominal surgery, FIG. 16
# Method: Female CD rats were used to test the effect of SEQ ID NO:3 on delayed transit induced by abdominal surgery and manual manipulation of the small intestine. Groups of at least nine rats underwent abdominal surgery under isoflurane anesthesia. Surgery consisted of laparotomy and 5 minutes of gentle manual intestinal massage. Following recovery from anesthesia, rats were dosed orally with either 10 μg/kg SEQ ID NO:3 or vehicle (20 mM Tris) in a volume of 300 μl. 1 hour after dosing, intestinal transit rate was measured. Animals were again dosed with 300 μl of the test article followed immediately by 500 μl of a charcoal meal (10% charcoal, 10% gum arabic in water). To calculate the distance of the small intestine traveled by the charcoal front, after 20 minutes, the total length of the intestine as well as the distance traveled from the stomach to the charcoal front were measured for each animal. Animals dosed with 10 μg/kg SEQ ID NO:3 experienced an increase in transit following abdominal surgery compared to animals dosed with vehicle alone (FIG. 16). Charcoal transit in SEQ ID NO:3 dosed animals was measured at 37.3+3.0% (mean+SEM) of the small intestine compared with vehicle at 24.7+1.4% (mean+SEM) of the small intestine.
# [3] = target: chymotrypsin (Bos taurus, UniProt P00766); conditions: 37° C., up to 24 h
# Method: The stability of SEQ ID NO:3 in the presence of several mammalian digestive enzymes was determined. SEQ ID NO:3 was exposed to a variety of in vitro conditions including digestive enzymes and low ph environments designed to simulate gastric fluid. SEQ ID NO:3 was incubated with chymotrypsin, trypsin, pepsin, aminopeptidase, carboxypeptidase A, and simulated gastric fluid (sgf) at ph 1.0. Samples were collected at 0, 3, and 24 h for all conditions except pepsin digestion and the SGF. For the latter two conditions, samples were obtained at 0, 1, and 3 h. Negative control samples were prepared for initial and final time points. A separate, positive activity control was run in parallel to SEQ ID NO:3. All samples were analyzed by LC/MS
# 500 μl samples of 0.01 mg/mL SEQ ID NO:3 and guanylin (Sigma-Aldrich, G116; positive control) were prepared in the chymotrypsin reaction buffer (100 mM Tris-HCl, 10 mM CaCl2, pH 7.5) in 2 mL eppendorf tubes. Zero and 24 h control samples were prepared by adding 5 μL of a 10 mM chymostatin (Sigma-Alrich, C7268; a chymotrypsin inhibitor) stock for a final concentration of 100 μM. All samples were incubated at 37° C. for 5 min. […] These standards were used to generate a standard curve for quantification of samples. […]
compound,measurement,setting,value
"C[C@@H]1NC(=O)[C@@H]2CCCN2C(=O)[C@H](CC(N)=O)NC(=O)[C@@H]2CSSC[C@H](N)C(=O)N[C@H]3CSSC[C@H](NC1=O)C(=O)N[C@@H]([C@@H](C)O)C(=O)NCC(=O)N[C@H](C(=O)N[C@@H](Cc1ccc(O)cc1)C(=O)O)CSSC[C@H](NC(=O)[C@H](Cc1ccc(O)cc1)NC(=O)[C@H](CCC(=O)O)NC3=O)C(=O)N2 [SEQ ID NO:3] (H-CCEYCCNPACTGCY-OH; disulfide 1-6, 2-10, 5-13; N-terminus and C-terminus assumed)","effect of pH on binding to the high affinity site, Ki1","[1]; pH 5, 7 and 8",not affected by pH
same,Ki,"[1]; pH 5.0, T84 cells, read-out: Ki1 (high affinity site)",1.38 nM
same,Ki,"[1]; pH 5.0, T84 cells, read-out: Ki2 (low affinity site)",17 nM
same,Ki,"[1]; pH 8.0, T84 cells, read-out: Ki1 (high affinity site)",0.6 nM
same,Ki,"[1]; pH 8.0, T84 cells, read-out: Ki2 (low affinity site)",94.4 nM
same,"Charcoal transit, of the small intestine (mean+SEM)",[2],37.3+3.0%
same,Cleavage of SEQ ID NO: 3 by proteolytic substance,[3],not detectable
